Reference: publication PMC6972920, “Structure-based development of caged dopamine D2/D3 receptor antagonists” (Scientific Reports, 2020)
“Also recorded” adds a separate entry of the source.

How the values were obtained:
[1] = molecular target: T1, dopamine D2S receptor co-expressed with hybrid Gαqi in HEK293T cells (Homo sapiens, UniProt P14416); test: IP accumulation assay (IP-One HTRF), inhibition of 10 nM quinpirole; format: cell-based; settings: for Emax: HEK-293T, in presence of 10 nM quinpirole, relative to quinpirole (100%) and buffer (0%), read-out: inhibitory effect Emax; for IC50: blocking of the agonist effect of 10 nM quinpirole, ± SEM, 4-6 experiments, read-out: inhibitory effect IC50
T1 construct: expressed in transfected cells; host or cells: HEK-293T cells, transient co-transfection
T1 sequence (P14416 1-414 isoform P14416-2): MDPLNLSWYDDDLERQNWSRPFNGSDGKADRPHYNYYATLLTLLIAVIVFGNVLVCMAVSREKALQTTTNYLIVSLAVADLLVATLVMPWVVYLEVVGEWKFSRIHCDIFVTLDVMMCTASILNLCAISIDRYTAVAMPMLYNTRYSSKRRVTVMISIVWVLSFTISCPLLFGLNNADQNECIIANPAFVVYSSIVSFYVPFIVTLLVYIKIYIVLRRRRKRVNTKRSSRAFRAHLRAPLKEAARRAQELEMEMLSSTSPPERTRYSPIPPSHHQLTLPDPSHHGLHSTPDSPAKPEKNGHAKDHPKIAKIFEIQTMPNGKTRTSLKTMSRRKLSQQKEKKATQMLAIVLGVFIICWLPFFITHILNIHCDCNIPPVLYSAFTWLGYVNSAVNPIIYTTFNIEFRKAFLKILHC

[2] = molecular target: T2, D2S receptor (HEK293T cells co-transfected with D2S and Gαqi) (Homo sapiens, UniProt P14416); test: Illumination experiment: test compound solution irradiated at 365 nm before addition to cells, quinpirole stimulated IP accumulation; format: cell-based; settings: for irradiation time after which no quinpirole activity could be observed / agonist effect of quinpirole remaining after 2 seconds of irradiation: 50 nM caged compound, 365 nm; for irradiation time for complete release (uncaging) of dechloroeticlopride: 50 nM, irradiation at 365 nm, solution irradiated before addition to cells
T2 construct: expressed in transfected cells; host or cells: HEK-293T cells, transient co-transfection
T2 sequence (P14416 1-414 isoform P14416-2): as above
Source text: […]. Mean curves ± SEM of 4–9 individual curves each done in triplicates. […]. Mean curves from 3–4 experiments each done in duplicate. […]. While 4 (MG307) (green bars) is completely released after 10 sec, the uncaging of 5 (red bars) needs 20 sec. […]. Mean bars ± SEM derived from 3–11 individual experiments each done in quintuplicates. Irradiation with a solution of test compound before addition to the cellular test system. […]. Means ± SEM from 6 experiments in quintuplicates.
[…]. Actually, we observed an onset of a strong inverse agonist effect on quinpirole-induced IP accumulation after irradiation of the nitrobenzyl-caged compound 4 (MG307). […] […]. […] To complement uncaging of the test compounds by irradiation of the test compounds before addition to receptor by a biologically more significant experiment, we investigated whether uncaging can also be accomplished directly in the cellular system. […] In fact, quinpirole-promoted IP accumulation was substantially attenuated after irradiation for 10 or 20 sec. […] […]. […] […].
HEK293T cells were transiently co-transfected with D2S and Gαqi. Solutions of the test compounds were irradiated at λ = 365 nm using the same LED as for the photochemistry experiments (see above) for 2, 5, 10 or 20 sec and the test compound was added to the cell system immediately after illumination. […]. Accumulation of IP was determined as described above. […]. Basal activity (buffer) was set as 0%. As a control, quinpirole was irradiated for 20 sec without observing any difference to the effect of the untreated analog. […]. All irradiation experiments were carried out in the dark or under dim light.

[3] = molecular target: T1, dopamine D2S receptor co-expressed with hybrid Gαqi in HEK293T cells; test: IP accumulation assay (IP-One HTRF), agonist / inverse agonist effect; format: cell-based; settings: for functional properties in IP accumulation assay (in words): D2S receptors; for Emax: HEK-293T, relative to full effect of quinpirole (100%) and buffer (0%); for EC50: IP accumulation, ± SEM, 3-8 experiments, negative Emax = inverse agonist effect
[4] = molecular target: human dopamine receptor subtype D2S (Homo sapiens, UniProt P14416); test: Radioligand displacement, [3H]spiperone, CHO cell membranes; format: binding; settings: [3H]spiperone; mean ± SEM of 4-9 experiments; compounds 1, 2, 3: ± SD of two experiments; read-out: Ki value D2S
human dopamine receptor subtype D2S, sequence (P14416 1-414 isoform P14416-2): as above

[5] = molecular target: human dopamine receptor subtype D2L (Homo sapiens, UniProt P14416); test: as above; format: binding; settings: [3H]spiperone; mean ± SEM of 4-9 experiments; compounds 1, 2, 3: ± SD of two experiments; read-out: Ki value D2L
human dopamine receptor subtype D2L, sequence (P14416 whole entry): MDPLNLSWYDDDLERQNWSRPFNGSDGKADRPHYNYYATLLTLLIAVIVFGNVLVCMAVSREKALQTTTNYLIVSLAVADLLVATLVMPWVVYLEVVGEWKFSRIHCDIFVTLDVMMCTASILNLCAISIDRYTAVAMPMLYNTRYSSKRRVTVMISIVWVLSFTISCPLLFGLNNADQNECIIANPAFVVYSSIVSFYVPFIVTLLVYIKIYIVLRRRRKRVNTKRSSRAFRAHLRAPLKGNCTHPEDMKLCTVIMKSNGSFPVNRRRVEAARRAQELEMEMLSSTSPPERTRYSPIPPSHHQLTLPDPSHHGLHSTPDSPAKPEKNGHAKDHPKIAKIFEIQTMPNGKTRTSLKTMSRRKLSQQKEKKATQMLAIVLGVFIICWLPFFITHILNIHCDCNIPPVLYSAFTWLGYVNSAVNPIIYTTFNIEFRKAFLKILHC

[6] = Compound stability and photolysis in aqueous buffer monitored by HPLC; format: physicochemical; settings: for behaviour upon illumination with λp = 365 nm (in words): aqueous buffer, LED 365 nm, HPLC; for stability in the absence of light (in words): dark, storage and solution, HPLC/LCMS; for remaining fraction of the initial concentration: incubation in aqueous buffer at ambient light for 1 h
Procedure: All measurements were performed in aqueous buffer solution. Compound stability and photolysis was monitored by HPLC. […] Excitation of NB- and DMNB-type cages to trigger photolysis is usually performed with light of 300–400 nm. This absorption profile may limit the wavelength range for cage photolysis, as simultaneous excitation of the core pharmacophore may trigger photolytic degradation of the desired product. We performed photolysis experiments using a near UV light-emitting diode (LED) light source with a peak wavelength of λp = 365 nm and a spectrum half width of Δλ = 9 nm.
No unspecific degradation of the pharmacophore was observed, resulting in constant concentration of the desired product. […] The exposure to ambient light for longer time led to partial photolytic degradation. After incubation in aqueous buffer at ambient light for 1 h, we detected remaining 51% and 62% of the initial concentrations of 4 (MG307) and 5, respectively.
For compound characterization, UV/Vis absorption spectra of samples with c = 0.1 mM in methanol were measured on an Analytik Jena Specord 200 Plus spectrometer (λ = 210–400 nm). Irradiation experiments to trigger photolysis were performed in open HPLC glass vials using a LED (λ = 365 nm, 4.5 V, 0.7 A) to irradiate the samples from top. An aqueous buffer solution served as solvent (50 mM Tris, 1 mM EDTA, 50 mM MgCl2, 100 µg/ml bacitracin, 5 µg/ml soybean trypsin inhibitor), with initial sample concentrations of […] and sample volumes of 100 µl. Photolysis was monitored by HPLC as specified before (eluent system 1). […] Unless specified differently, all experiments were performed in triplicate.

[7] = Quantum yield determination of uncaging (365 nm LED); format: physicochemical; settings: for quantum yield φ for photolytic liberation of dechloroeticlopride: 365 nm; for quantum yield ϕ: 0.1 mM in aqueous buffer; for quantum yield ϕ / yield of liberated dechloroeticlopride: 365 nm LED
Procedure: Quantum yield determination. Quantum yields were determined in the following setup: translation stages (horizontal and vertical): Thorlabs DT 25/M or DT S25/M; photographic lens with f = 50 mm; magnetic stirrer: Faulhaber motor (1524B024S R) with 14:1 gear (15A); PS19Q power sensor from Coherent; PowerMax software; adjustable power supply “Basetech BT-153 0-15 V/DC 0-3 A 45 W” [2].
Measurements were performed in a covered apparatus to minimize the influence of ambient light. A 10 mm Hellma® quartz fluorescence cuvette with solvent (aqueous buffer solution, 2 ml) and a stirring bar was placed in the beam of a 365 nm LED and the transmitted power (Pref = 4.40 mW) was measured by a calibrated photodiode horizontal to the cuvette. The content of the cuvette was changed to a 0.1 mM solution of the respective caged compound in aqueous buffer (2 ml) with a stirring bar. The transmitted power was measured analogously to the blank solution. The sample was further irradiated and the transmitted power as well as the respective yield of liberated benzamide dechloroeticlopride was recorded after different times. The quantum yield was then calculated with the following […]
ϕ = N௉ = c௉ ∙ V ∙N஺ ∙ h ∙c
ϕ = quantum yield h = Planck constant
N௉ = number of product molecules formed c = speed of light
N௉௛.௔௕௦. = number of absorbed photons P௔௕௦. = radiant power absorbed
c௉ = product concentration ∆t = irradiation time
V = sample volume λ = irradiation wavelength […]
entry compound irradiation time Pabs. yield ϕ

[8] = molecular target: human dopamine receptor subtype D3 (Homo sapiens, UniProt P35462); test: Radioligand displacement, [3H]spiperone, CHO cell membranes; format: binding; settings: mean ± SEM of 4-9 experiments, compounds 1, 2, 3: ± SD of two experiments
human dopamine receptor subtype D3, sequence (P35462 whole entry): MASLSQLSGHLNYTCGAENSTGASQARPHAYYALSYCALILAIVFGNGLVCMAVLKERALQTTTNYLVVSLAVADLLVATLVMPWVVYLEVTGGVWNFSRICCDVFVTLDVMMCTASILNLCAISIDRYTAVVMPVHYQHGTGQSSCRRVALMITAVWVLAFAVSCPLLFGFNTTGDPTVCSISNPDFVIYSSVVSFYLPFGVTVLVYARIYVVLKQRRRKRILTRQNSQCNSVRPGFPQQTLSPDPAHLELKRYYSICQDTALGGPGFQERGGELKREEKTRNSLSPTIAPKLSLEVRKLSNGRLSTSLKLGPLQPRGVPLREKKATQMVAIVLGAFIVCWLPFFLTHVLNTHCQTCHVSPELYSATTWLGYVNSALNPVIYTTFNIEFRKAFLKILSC

Row | SMILES | Emax [1] | IC50 [1] | irradiation time after which no quinpirole activity could be observed ([2]; 10 nM quinpirole) | agonist effect of quinpirole remaining after 2 seconds of irradiation ([2]; 10 nM quinpirole) | irradiation time for complete release (uncaging) of dechloroeticlopride [2] | functional properties in IP accumulation assay (in words) [3] | Emax [3] | EC50 [3] | Ki [4] | Ki [5] | behaviour upon illumination with λp = 365 nm (in words) [6] | stability in the absence of light (in words) [6] | remaining fraction of the initial concentration [6] | quantum yield φ for photolytic liberation of dechloroeticlopride [7] | quantum yield ϕ ([7]; irradiation time 10 min) | yield of liberated dechloroeticlopride ([7]; irradiation time 10 min) | quantum yield ϕ ([7]; irradiation time 30 min) | yield of liberated dechloroeticlopride ([7]; irradiation time 30 min) | Ki [8] | also measured
1 | CCc1ccc(OC)c(C(=O)NC[C@@H]2CCCN2CC)c1OCc1ccccc1[N+](=O)[O-] [compound 4, (S)-3-Ethyl-N-[(1-ethylpyrrolidin-2-yl)methyl]-6-methoxy-2-[(2-nitrobenzyl)oxy]benzamide] | -29 ± 5.6% | 850 ± 210 nM | 10 s | less than 30% | 10 s | inverse agonist properties were observed as well, but potency was low | -21 ± 3.3% | 220 ± 65 nM | 220 ± 66 nM | 210 ± 18 nM | fast conversion to dechloroeticlopride within a few seconds | stable under storage conditions and in solution for at least two days | 51% | 0.5% | 2.9% | 11% | 1.2% | 16% | 200 ± 62 nM | behaviour upon illumination with λp = 365 nm (in words) ([6]; listed as 4 (MG307)): clean photolysis
2 | CCc1ccc(OC)c(C(=O)NC[C@@H]2CCCN2CC)c1OCc1cc(OC)c(OC)cc1[N+](=O)[O-] [compound 5] | -28 ± 4.6% | 990 ± 230 nM | 20 s | less than 30% | 20 s | inverse agonist properties were observed as well, but potency was low | -21 ± 5.5% | 280 ± 120 nM | 160 ± 35 nM | 350 ± 47 nM | fast conversion to dechloroeticlopride within a few seconds; also recorded: clean photolysis | stable under storage conditions and in solution for at least two days | 62% | 2.1% | 0.7% | 17% | 0.3% | 22% | 140 ± 33 nM | 
3 | CCc1ccc(OC)c(C(=O)NC[C@@H]2CCCN2CC)c1O [dechloroeticlopride, (S)-3-Ethyl-N-[(1-ethylpyrrolidin-2-yl)methyl]-2-hydroxy-6-methoxybenzamide, reference compound] | -20 ± 2.1% | 9.6 nM |  |  |  | specific antagonist / inverse agonist | -17 ± 2.5% | 5.2 ± 0.8 nM | 1.2 ± 0.21 nM | 2.4 ± 0.44 nM | more photostable; also recorded: no significant decomposition |  |  |  |  |  |  |  |  | effect of irradiation at 365 nm for 20 sec on the compound's effect on IP accumulation (in words) ([2]; controls, 10 nM quinpirole): does not affect
